Measurements: ChEMBL document CHEMBL3124856, “Design, synthesis, and pharmacological evaluation of a novel series of pyridopyrazine-1,6-dione γ-secretase modulators” (J Med Chem, 2014)
pIC50: −log10 of the molar value. In brackets after ≈: the same amount, converted by molar mass. Blank lines part the entries; values can stand above or below the molecule they belong to.

Key:
[1] = Apparent intrinsic clearance in human liver microsomes; type: ADME; details: read-out: CLH(app)
MDR1 (human) [2] = experiment: Efflux ratio of permeability in MDCK cells expressing human MDR1; type: ADME, cell-based, Canis lupus familiaris; details: dog
Gamma-secretase [3] = experiment: Modulation of gamma-secretase (unknown origin) expressed in CHO cells overexpressing human wild type APP assessed as reduction of amyloid beta 42 level after 24 hrs by ELISA; type: cell-based
Cytochrome P450 1A2 = target: T1, Cytochrome P450 1A2 (Homo sapiens, UniProt P05177); experiment: Inhibition of CYP1A2 (unknown origin); type: ADME
T1 sequence (P05177 whole entry): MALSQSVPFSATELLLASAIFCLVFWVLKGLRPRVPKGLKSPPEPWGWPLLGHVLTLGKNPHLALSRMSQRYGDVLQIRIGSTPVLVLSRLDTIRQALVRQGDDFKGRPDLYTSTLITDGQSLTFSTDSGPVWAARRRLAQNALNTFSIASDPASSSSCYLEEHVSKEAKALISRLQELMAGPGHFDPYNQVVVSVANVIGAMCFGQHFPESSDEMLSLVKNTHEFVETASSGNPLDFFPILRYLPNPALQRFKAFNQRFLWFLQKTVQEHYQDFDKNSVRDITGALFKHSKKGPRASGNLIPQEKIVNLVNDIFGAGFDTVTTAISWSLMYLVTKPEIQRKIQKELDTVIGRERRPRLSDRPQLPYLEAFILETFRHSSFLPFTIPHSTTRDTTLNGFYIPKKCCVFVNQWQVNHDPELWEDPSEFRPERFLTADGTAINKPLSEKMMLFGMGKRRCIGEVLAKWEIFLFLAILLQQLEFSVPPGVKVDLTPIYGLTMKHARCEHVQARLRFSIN

[4] = Aqueous kinetic solubility of the compound at pH 6.5; type: physicochemical; details: read-out: Kinetic_solubility
[5] = Lipophilicity, log D of the compound by shake flask method; type: physicochemical; details: octanol/water
[6] = Apparent intrinsic clearance in rat liver microsomes; type: ADME; details: read-out: CLH(app)
[7] = Passive apparent permeability from apical to basolateral side in RRCK cells; type: ADME, cell-based, Canis lupus familiaris, MDCKII-LE; details: dog, MDCK
[8] = Fraction unbound in rat plasma; type: ADME, cell-free
[9] = Fraction unbound in rat brain; type: ADME, tissue-based
[10] = Ratio of unbound drug level in brain to plasma in rat; type: ADME
[11] = Ratio of drug uptake in brain to plasma in rat at 5 mg/kg, po after 1 hr; type: ADME, organism-based; parameters: dose 5 mg/kg, route oral; details: read-out: BPR
[12] = Drug uptake in rat brain at 5 mg/kg, po after 1 hr; type: ADME, organism-based; parameters: dose 5 mg/kg, route oral; details: read-out: Drug uptake
[13] = Plasma concentration in rat at 5 mg/kg, po after 1 hr; type: ADME, organism-based; parameters: dose 5 mg/kg, route oral
[14] = Bioavailability in rat at 1 mg/kg, iv and 5 mg/kg, po; type: ADME, organism-based; details: in vivo
[15] = Volume of distribution at steady state in rat at 1 mg/kg, iv; type: ADME, organism-based; parameters: dose 1 mg/kg, route intravenous; details: in vivo, read-out: Vdss
[16] = Half life in rat at 1 mg/kg, iv; type: ADME, organism-based; parameters: dose 1 mg/kg, route intravenous; details: in vivo
[17] = Clearance in rat at 1 mg/kg, iv; type: ADME, organism-based; parameters: dose 1 mg/kg, route intravenous; details: in vivo
MDR1 (human) [18] = experiment: Permeability from apical to basolateral side in MDCK cells expressing human MDR; type: ADME, cell-based, Canis lupus familiaris; details: dog, read-out: permeability
Gamma-secretase [19] = experiment: Modulation of gamma secretase in HEK293 NdeltaE cells assessed as inhibition of notch signalling; type: cell-based, Homo sapiens
Cytochrome P450 3A4 = Cytochrome P450 3A4 (Homo sapiens, UniProt P08684); experiment: Inhibition of CYP3A4 (unknown origin); type: ADME
Cytochrome P450 2D6 = Cytochrome P450 2D6 (Homo sapiens, UniProt P10635); experiment: Inhibition of CYP2D6 (unknown origin); type: ADME
Cytochrome P450 2C9 = Cytochrome P450 2C9 (Homo sapiens, UniProt P11712); experiment: Inhibition of CYP2C9 (unknown origin); type: ADME
Cytochrome P450 2C8 = target: T2, Cytochrome P450 2C8 (Homo sapiens, UniProt P10632); experiment: Inhibition of CYP2C8 (unknown origin); type: ADME
T2 sequence (P10632 whole entry): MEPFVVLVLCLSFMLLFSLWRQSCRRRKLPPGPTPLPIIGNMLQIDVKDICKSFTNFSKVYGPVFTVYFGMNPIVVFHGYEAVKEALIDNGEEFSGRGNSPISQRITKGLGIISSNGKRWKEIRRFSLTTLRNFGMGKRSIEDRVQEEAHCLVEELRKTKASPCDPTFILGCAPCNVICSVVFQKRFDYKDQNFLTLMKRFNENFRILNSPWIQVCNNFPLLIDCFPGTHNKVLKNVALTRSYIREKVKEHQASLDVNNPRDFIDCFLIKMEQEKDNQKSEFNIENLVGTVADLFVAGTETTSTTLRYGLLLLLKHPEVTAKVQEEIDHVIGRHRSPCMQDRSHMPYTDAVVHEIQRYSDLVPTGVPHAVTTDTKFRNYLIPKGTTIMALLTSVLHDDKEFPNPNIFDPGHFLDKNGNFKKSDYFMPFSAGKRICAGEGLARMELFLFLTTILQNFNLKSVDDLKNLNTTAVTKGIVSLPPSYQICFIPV

Cytochrome P450 2C19 = Cytochrome P450 2C19 (Homo sapiens, UniProt P33261); experiment: Inhibition of CYP2C19 (unknown origin); type: ADME
Chain of Cytochrome P450 2C19 (P33261 whole entry): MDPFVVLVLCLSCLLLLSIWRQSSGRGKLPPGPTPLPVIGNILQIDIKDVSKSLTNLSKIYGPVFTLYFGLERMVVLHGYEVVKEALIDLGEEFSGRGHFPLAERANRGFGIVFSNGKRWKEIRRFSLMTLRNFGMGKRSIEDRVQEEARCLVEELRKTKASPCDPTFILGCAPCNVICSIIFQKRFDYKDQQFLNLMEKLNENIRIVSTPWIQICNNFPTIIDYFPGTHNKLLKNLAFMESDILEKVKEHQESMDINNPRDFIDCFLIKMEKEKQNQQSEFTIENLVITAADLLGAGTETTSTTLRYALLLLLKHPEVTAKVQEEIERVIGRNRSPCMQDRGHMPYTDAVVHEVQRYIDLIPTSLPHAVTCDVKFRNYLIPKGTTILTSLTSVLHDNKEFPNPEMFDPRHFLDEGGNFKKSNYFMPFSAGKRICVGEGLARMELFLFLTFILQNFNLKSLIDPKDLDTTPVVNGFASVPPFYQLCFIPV

Chain of Cytochrome P450 2D6 (P10635 whole entry): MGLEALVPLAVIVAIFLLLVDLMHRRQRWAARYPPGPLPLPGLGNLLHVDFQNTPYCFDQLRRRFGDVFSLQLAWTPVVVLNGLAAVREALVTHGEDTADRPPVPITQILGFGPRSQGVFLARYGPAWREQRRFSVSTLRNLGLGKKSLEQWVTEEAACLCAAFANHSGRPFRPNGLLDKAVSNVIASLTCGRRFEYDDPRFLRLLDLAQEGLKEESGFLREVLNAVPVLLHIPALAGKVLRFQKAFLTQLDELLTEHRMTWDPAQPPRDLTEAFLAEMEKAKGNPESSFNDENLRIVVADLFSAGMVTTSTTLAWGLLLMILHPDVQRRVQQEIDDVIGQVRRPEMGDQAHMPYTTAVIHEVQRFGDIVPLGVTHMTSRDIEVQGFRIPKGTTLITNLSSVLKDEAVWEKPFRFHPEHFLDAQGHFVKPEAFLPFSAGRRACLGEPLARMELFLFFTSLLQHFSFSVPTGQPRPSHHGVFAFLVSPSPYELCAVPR
Chain of Cytochrome P450 3A4 (P08684 whole entry): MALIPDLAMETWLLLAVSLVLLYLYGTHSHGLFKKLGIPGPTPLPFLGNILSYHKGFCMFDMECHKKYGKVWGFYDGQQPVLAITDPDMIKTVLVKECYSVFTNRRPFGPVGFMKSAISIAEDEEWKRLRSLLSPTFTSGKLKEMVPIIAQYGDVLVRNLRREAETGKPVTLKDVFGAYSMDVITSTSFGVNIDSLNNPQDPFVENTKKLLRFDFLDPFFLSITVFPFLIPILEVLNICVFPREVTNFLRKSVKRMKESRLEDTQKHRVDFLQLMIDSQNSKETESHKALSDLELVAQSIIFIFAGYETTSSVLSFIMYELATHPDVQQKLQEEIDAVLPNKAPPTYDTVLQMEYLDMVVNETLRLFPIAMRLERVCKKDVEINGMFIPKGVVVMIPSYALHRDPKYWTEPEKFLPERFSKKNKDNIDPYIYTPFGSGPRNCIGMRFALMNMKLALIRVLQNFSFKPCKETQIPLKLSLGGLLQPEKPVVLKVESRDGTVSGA
Chain of Cytochrome P450 2C9 (P11712 whole entry): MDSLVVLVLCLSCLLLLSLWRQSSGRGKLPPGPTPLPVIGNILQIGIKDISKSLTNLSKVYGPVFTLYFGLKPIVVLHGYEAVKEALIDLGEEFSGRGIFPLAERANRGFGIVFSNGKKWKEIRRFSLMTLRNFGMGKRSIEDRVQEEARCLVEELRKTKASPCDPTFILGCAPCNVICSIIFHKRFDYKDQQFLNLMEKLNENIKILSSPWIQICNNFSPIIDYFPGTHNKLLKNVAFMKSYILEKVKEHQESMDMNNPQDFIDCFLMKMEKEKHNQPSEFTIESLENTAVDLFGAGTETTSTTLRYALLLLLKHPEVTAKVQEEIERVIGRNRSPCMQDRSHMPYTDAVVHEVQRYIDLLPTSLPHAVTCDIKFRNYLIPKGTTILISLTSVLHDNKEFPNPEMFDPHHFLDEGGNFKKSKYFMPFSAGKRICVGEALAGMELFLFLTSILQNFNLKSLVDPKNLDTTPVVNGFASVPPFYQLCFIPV

CLint scaled [1]: 12.3 mL/min/kg
efflux ratio (MDR1 (human) [2]): 1.1
pIC50 (Gamma-secretase [3]): 6.04
SMILES: Cc1cn(-c2ccc3c(=O)n(Cc4cccc(C(F)(F)F)c4)ccc3c2O)cn1

pIC50 (Cytochrome P450 1A2): < 4.52
solubility kinetic [4]: 177 µM (≈ 79.7 µg/mL)
logD [5]: 2.75
CLint scaled [6]: 44.1 mL/min/kg
CLint scaled [1]: < 8.8 mL/min/kg
Papp A→B [7]: 17.7 ×10⁻⁶ cm/s
efflux ratio (MDR1 (human) [2]): 1.5
pIC50 (Gamma-secretase [3]): 6.60
fraction unbound [8]: 0.055
fraction unbound [9]: 0.032
Kp uu [10]: 0.43
Kp at 1 h [11]: 0.74
concentration at 1 h [12]: 718 ng/mL
concentration at 1 h [13]: 964 ng/mL
bioavailability [14]: 100%
Vd [15]: 1.91 L/kg
half-life [16]: 2.09 h
clearance [17]: 14.3 mL/min/kg
Papp A→B (MDR1 (human) [18]): 13.1 ×10⁻⁶ cm/s
pIC50 (Gamma-secretase [19]): < 4.30
pIC50 (Cytochrome P450 3A4): < 4.52
pIC50 (Cytochrome P450 2D6): < 4.52
pIC50 (Cytochrome P450 2C9): < 4.52
pIC50 (Cytochrome P450 2C8): 4.72
pIC50 (Cytochrome P450 2C19): < 4.52
SMILES: Cc1cn(-c2ccc3n(c2=O)CCN(CCOc2ccc(F)cc2C(F)(F)F)C3=O)cn1

CLint scaled [1]: 27.8 mL/min/kg
pIC50 (Gamma-secretase [3]): 6.18
SMILES: COc1cc(C(=O)NCc2cccc(C(F)(F)F)c2)ccc1-n1cnc(C)c1
